From patent publication US11345699B2, “Apoptosis signal-regulating kinase 1 inhibitors and methods of use thereof” (Enanta Pharmaceuticals, Inc., priority 2018, dated 2022) come the findings set out here.

As usually defined, the IC50 is the concentration that gives 50% inhibition. A higher IC50 goes with weaker potency.

The target of this experiment is ASK1 (Homo sapiens (Human), UniProt Q99683). The experiment is described as follows: HTRF KinEASE Assay (TR-FRET), inhibition of ASK1. In kind it is biochemical. The following applies: ASK1 kinase, 100 μM ATP, 1 μM STK3 peptide substrate, compound 0 to 10 μM. On the procedure: Assay HTRF® KinEASE™ Assay
ASK1, sequence (Q99683 whole entry): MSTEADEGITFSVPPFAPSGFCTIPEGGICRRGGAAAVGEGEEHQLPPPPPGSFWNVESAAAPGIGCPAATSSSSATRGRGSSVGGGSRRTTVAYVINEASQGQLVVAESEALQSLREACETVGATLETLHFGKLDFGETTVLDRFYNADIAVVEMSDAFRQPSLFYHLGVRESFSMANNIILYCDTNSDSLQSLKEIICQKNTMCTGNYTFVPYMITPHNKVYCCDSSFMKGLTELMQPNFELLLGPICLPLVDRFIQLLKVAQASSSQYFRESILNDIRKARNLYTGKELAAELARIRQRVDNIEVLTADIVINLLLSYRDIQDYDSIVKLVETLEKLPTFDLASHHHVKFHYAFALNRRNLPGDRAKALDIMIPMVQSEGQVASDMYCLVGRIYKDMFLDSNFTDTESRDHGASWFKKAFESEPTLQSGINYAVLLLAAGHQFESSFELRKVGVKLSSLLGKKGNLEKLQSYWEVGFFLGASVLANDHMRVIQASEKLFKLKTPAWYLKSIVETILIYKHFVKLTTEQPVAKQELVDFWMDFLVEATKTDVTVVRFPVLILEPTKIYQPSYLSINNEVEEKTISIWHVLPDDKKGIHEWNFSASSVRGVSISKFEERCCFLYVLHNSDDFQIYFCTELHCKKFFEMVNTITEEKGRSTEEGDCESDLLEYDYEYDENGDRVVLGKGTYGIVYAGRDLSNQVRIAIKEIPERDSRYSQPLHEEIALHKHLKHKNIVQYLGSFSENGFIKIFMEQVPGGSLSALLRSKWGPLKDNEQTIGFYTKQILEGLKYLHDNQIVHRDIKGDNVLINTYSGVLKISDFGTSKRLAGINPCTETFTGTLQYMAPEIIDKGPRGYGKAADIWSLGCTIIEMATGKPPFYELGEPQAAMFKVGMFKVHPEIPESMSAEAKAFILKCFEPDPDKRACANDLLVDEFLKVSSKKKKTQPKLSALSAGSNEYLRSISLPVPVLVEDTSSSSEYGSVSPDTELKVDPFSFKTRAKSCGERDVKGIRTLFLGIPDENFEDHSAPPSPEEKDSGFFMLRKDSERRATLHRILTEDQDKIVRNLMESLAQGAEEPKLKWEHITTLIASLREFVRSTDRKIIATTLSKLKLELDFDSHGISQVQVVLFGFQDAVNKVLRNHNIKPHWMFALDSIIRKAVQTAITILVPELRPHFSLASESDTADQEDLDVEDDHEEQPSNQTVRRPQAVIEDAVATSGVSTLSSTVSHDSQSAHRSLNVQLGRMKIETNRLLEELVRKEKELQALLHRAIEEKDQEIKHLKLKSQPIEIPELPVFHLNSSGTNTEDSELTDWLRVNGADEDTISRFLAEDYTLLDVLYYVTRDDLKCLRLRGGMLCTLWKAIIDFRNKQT
ASK1 was purchased from Thermofisher (Catalogue #PV4011), ATP was purchased from Sigma (Catalogue #A7699), HTRF® KinEASE™ Assay System was obtained from Cisbio (Bedford, Mass.). ½ Area plate was purchased from Perkin Elmer (Catalogue ##6005560). HTRF® KinEASE™-STK is a generic method for measuring serine/threonine kinase activities using a time-resolved fluorescence resonance energy transfer (TR-FRET) immunoassay. The IC50 value for each compound was determined in the presence of compound (various concentration from 0 to 10 μM) and a fixed amount of ATP and peptide substrates. The test compound, 1 μM STK3 peptide substrate, and […] of ASK1 kinase are incubated with kinase reaction buffer containing 50 mM HEPES Ph 7.5, 0.01% BRIJ-35, 10 mM MgCl2, and 1 mM EGTA for 30 minutes. 100 μM ATP is added to start kinase reaction and incubated for 3 hours. The STK3-antibody labeled with Eu^3+-Cryptate and 125 nM streptavidin-XL665 are mixed in a single addition with stop reagents provided by the Cisbio kit used to stop the kinase reaction. Fluorescence is detected using an Envision Multilabeled 2014 reader from PerkinElmer. The Fluorescence is measured at 615 nm (Cryptate) and 665 nm (XL665) and a ratio of 665 nm/615 nm is calculated for each well. The resulting TR-FRET is proportional to the phosphorylation level. Staurosporine was used as the positive control. IC50 was determined by Xlfit 5.3.
By using above method, the inhibition of ASK1 was evaluated for the compounds of Formula (I). Example numbers correspond to those in Table 5.
(In general: In TR-FRET formats the signal depends on donor and acceptor labels being close together.)

For `CC(C)n1cnnc1-c1cccc(NC(=O)c2cc3c(cn2)CCN(C(=O)C(C)(C)C)C3)n1` [Example 1, N-(6-(4-isopropyl-4H-1,2,4-triazol-3-yl)pyridin-2-yl)-6-pivaloyl-5,6,7,8-tetrahydro-2,6-naphthyridine-3-carboxamide], the IC50 was 1.25 to 10 nM.
For the compound `CC(C)n1cnnc1-c1cccc(NC(=O)c2cc3c(cn2)CCN(S(=O)(=O)N(C)C)C3)n1` [Example 2, 6-(N,N-dimethylsulfamoyl)-N-(6-(4-isopropyl-4H-1,2,4-triazol-3-yl)pyridin-2-yl)-5,6,7,8-tetrahydro-2,6-naphthyridine-3-carboxamide], the IC50 lay within 10 to 100 nM.
Consider `CC(C)CN1CCc2cnc(C(=O)Nc3cccc(-c4nncn4C(C)C)n3)cc2C1` [Example 3, 6-isobutyl-N-(6-(4-isopropyl-4H-1,2,4-triazol-3-yl)pyridin-2-yl)-5,6,7,8-tetrahydro-2,6-naphthyridine-3-carboxamide], for which the IC50 was 10 to 100 nM.
Compound `COc1cc2c(cc1C(=O)Nc1cccc(-c3nncn3C(C)C)n1)CN(C(=O)OC(C)(C)C)CC2` [Example 5, tert-butyl 7-((6-(4-isopropyl-4H-1,2,4-triazol-3-yl)pyridin-2-yl)carbamoyl)-6-methoxy-3,4-dihydroisoquinoline-2(1H)-carboxylate] returned an IC50 of 10 to 100 nM.
The compound `CC(C)n1cnnc1-c1cccc(NC(=O)c2cc3c(cc2F)CCN(C(=O)OC(C)(C)C)C3)n1` [Example 10, tert-butyl 6-fluoro-7-((6-(4-isopropyl-4H-1,2,4-triazol-3-yl)pyridin-2-yl)carbamoyl)-3,4-dihydroisoquinoline-2(1H)-carboxylate] displayed a concentration for half-maximal inhibition (IC50) of 1.25 to 10 nM.
Take `CC(C)n1cnnc1-c1cccc(NC(=O)c2cc3c(cn2)CCN(S(=O)(=O)C2CC2)C3)n1` [Example 13, 6-(cyclopropylsulfonyl)-N-(6-(4-isopropyl-4H-1,2,4-triazol-3-yl)pyridin-2-yl)-5,6,7,8-tetrahydro-2,6-naphthyridine-3-carboxamide]: the IC50 was in the range of 1.25 to 10 nM.
Take `CCOC(=O)N1CCc2cc(OC)c(C(=O)Nc3cccc(-c4nncn4C(C)C)n3)cc2C1` [Example 17, ethyl 7-((6-(4-isopropyl-4H-1,2,4-triazol-3-yl)pyridin-2-yl)carbamoyl)-6-methoxy-3,4-dihydroisoquinoline-2(1H)-carboxylate]: the IC50 was in the range of 1.25 to 10 nM.
Next, `CC(C)n1cnnc1-c1cccc(NC(=O)c2cc3c(cc2F)CCN(C(=O)OCC(F)(F)F)C3)n1` [Example 21, 2,2,2-trifluoroethyl 6-fluoro-7-((6-(4-isopropyl-4H-1,2,4-triazol-3-yl)pyridin-2-yl)carbamoyl)-3,4-dihydroisoquinoline-2(1H)-carboxylate]: 1.25 to 10 nM.
The result for `CC(C)n1cnnc1-c1cccc(NC(=O)c2cc3c(cn2)CCN(C(=O)OCC(F)(F)F)C3)n1` [Example 25, 2,2,2-trifluoroethyl 7-((6-(4-isopropyl-4H-1,2,4-triazol-3-yl)pyridin-2-yl)carbamoyl)-3,4-dihydro-2,6-naphthyridine-2(1H)-carboxylate] reads 1.25 to 10 nM.
Turning to `C[C@H](CO)n1cnnc1-c1cccc(NC(=O)c2cc3c(cn2)CCN(S(=O)(=O)C2CC2)C3)n1` [Example 38, (R)-6-(cyclopropylsulfonyl)-N-(6-(4-(1-hydroxypropan-2-yl)-4H-1,2,4-triazol-3-yl)pyridin-2-yl)-5,6,7,8-tetrahydro-2,6-naphthyridine-3-carboxamide], the IC50 is 10 to 100 nM.
With `COc1cc2c(cc1C(=O)Nc1cccc(-c3nnnn3[C@H](C)CO)n1)CN(c1ncccn1)CC2` [Example 84, (R)-N-(6-(1-(1-hydroxypropan-2-yl)-1H-tetrazol-5-yl)pyridin-2-yl)-6-methoxy-2-(pyrimidin-2-yl)-1,2,3,4-tetrahydroisoquinoline-7-carboxamide], the IC50 fell in the range of 1.25 to 10 nM.
With `COCCOC(=O)N1CCc2cc(OC)c(C(=O)Nc3cccc(-c4nnnn4[C@H](C)CO)n3)cc2C1` [Example 96], the IC50 is below 1.25 nM.
The compound `COc1cc2c(cc1C(=O)Nc1cccc(-c3nnnn3[C@H](C)CO)n1)CN(C(=O)c1cnn(C3CC3)c1)CC2` [Example 97] gave an IC50 below 1.25 nM.
The compound `COc1cc2c(cc1C(=O)Nc1cccc(-c3nnnn3[C@H](C)CO)n1)CN(c1c(N)c(=O)c1=O)CC2` [Example 98, (R)-2-(2-amino-3,4-dioxocyclobut-1-en-1-yl)-N-(6-(1-(1-hydroxypropan-2-yl)-1H-tetrazol-5-yl)pyridin-2-yl)-6-methoxy-1,2,3,4-tetrahydroisoquinoline-7-carboxamide] had an IC50 of 1.25 to 10 nM.
The result for `C[C@H](CO)n1nnnc1-c1cccc(NC(=O)c2cc3c(cn2)CCN(C(=O)C(C)(C)CO)C3)n1` [Example 99] reads 10 to 100 nM; that for `C[C@H](CO)n1nnnc1-c1cccc(NC(=O)c2cc3c(cn2)CCN(C(=O)c2cnn(C4CC4)c2)C3)n1` [Example 100], 1.25 to 10 nM.
`COc1cc2c(cc1C(=O)Nc1cccc(-c3nnnn3[C@H](C)CO)n1)CN(C(=O)c1ccccn1)CC2` [Example 101] returned an IC50 below 1.25 nM.
Compound `COc1cc2c(cc1C(=O)Nc1cccc(-c3nnnn3[C@H](C)CO)n1)CN(C(=O)c1cc3ccccc3cn1)CC2` [Example 102] showed an IC50 of 1.25 to 10 nM.
Turning to `CCOC(=O)N1CCc2cc(F)c(C(=O)Nc3cccc(-c4nncn4[C@H](C)CF)n3)cc2C1` [Example 103], the IC50 lay in the range of 1.25 to 10 nM.
With `COc1cc2c(cc1C(=O)Nc1cccc(-c3nnnn3[C@H](C)CO)n1)CN(S(=O)(=O)c1ccccn1)CC2` [Example 104], the IC50 is below 1.25 nM.
`COc1cc2c(cc1C(=O)Nc1cccc(-c3nnnn3[C@H](C)CO)n1)CN(C(=O)[C@](C)(O)C(F)(F)F)CC2` [Example 105]: the IC50 was below 1.25 nM.
`C[C@H](CO)n1nnnc1-c1cccc(NC(=O)c2cc3c(cn2)CCN(C(=O)c2cn(C4CC4)cn2)C3)n1` [Example 106] gave an IC50 of 1.25 to 10 nM.
In turn, `CCOC(=O)N1CCc2cc(F)c(C(=O)Nc3cccc(-c4nncn4[C@@H](C)CF)n3)cc2C1` [Example 107] had an IC50 of 1.25 to 10 nM.
The result for `C[C@H](CO)n1nnnc1-c1cccc(NC(=O)c2cc3c(cn2)CCN(c2ncccn2)C3)n1` [Example 108, (R)—N-(6-(1-(1-hydroxypropan-2-yl)-1H-tetrazol-5-yl)pyridin-2-yl)-6-(pyrimidin-2-yl)-5,6,7,8-tetrahydro-2,6-naphthyridine-3-carboxamide] reads 1.25 to 10 nM; that for `CCOC(=O)N1CCc2cc(F)c(C(=O)Nc3cccc(-c4nnnn4[C@H](C)CO)n3)cc2C1` [Example 109], 1.25 to 10 nM.
Next, `COCCOC(=O)N1CCc2cc(F)c(C(=O)Nc3cccc(-c4nnnn4[C@H](C)CO)n3)cc2C1` [Example 110]: 10 to 100 nM; `CCNC(=O)N1CCc2cc(F)c(C(=O)Nc3cccc(-c4nnnn4[C@H](C)CO)n3)cc2C1` [Example 111]: 1.25 to 10 nM.
Turning to `COc1cc2c(cc1C(=O)Nc1cccc(-c3nnnn3[C@H](C)CO)n1)CN(C(=O)c1cnccn1)CC2` [Example 112], the IC50 is below 1.25 nM.
`COc1cc2c(cc1C(=O)Nc1cccc(-c3nnnn3[C@H](C)CO)n1)CN(C(=O)[C@@H](O)CC(C)C)CC2` [Example 113] displayed an IC50 below 1.25 nM.
`COc1cc2c(cc1C(=O)Nc1cccc(-c3nnnn3[C@H](C)CO)n1)CN(C(=O)C1(O)CC1)CC2` [Example 114] returned an IC50 below 1.25 nM.
For `COc1cc2c(cc1C(=O)Nc1cccc(-c3nnnn3[C@H](C)CO)n1)CN(C(=O)C(C)(C)O)CC2` [Example 115], the IC50 was below 1.25 nM.
